From patent publication US10112926B2 (priority 2014, dated 2018)
Structures can show the parent of a compound that is named as a salt.

Each molecule was assayed against Vps34 (Homo sapiens (Human), UniProt Q8NEB9). Conditions: read-out: Assay C VPS34 IC50.
Chain of Vps34 (Q8NEB9 whole entry): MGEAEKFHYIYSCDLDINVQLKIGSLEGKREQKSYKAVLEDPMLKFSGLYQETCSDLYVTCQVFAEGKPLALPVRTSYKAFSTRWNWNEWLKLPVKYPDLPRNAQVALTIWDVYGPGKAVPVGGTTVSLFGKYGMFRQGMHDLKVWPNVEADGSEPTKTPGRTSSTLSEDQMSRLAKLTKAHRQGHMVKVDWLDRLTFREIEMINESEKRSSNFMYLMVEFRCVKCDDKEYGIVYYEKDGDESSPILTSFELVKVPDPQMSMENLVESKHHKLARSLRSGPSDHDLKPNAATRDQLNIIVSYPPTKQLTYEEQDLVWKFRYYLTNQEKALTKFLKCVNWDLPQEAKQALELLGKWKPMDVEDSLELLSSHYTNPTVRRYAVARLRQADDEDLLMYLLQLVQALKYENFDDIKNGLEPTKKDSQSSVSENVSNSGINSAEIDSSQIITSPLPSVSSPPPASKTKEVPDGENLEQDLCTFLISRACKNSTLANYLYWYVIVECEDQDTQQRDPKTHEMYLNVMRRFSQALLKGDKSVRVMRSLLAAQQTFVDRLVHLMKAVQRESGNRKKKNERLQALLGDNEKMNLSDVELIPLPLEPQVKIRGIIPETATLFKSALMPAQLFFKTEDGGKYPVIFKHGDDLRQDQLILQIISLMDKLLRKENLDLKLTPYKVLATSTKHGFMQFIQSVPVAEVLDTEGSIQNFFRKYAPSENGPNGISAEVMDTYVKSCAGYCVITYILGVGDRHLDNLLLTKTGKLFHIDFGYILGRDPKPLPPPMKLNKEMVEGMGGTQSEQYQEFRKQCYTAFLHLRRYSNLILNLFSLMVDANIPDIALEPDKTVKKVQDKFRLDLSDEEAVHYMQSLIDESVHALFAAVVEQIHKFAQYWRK

Compound | IC50
Cc1ncc(-c2cc(-c3cc(S(=O)(=O)NCC(C)(C)O)ccc3C)cnc2N)o1 [Example 6, 3-(6-Amino-5-(2-methyloxazol-5-yl)pyridin-3-yl)-N-(2-hydroxy-2-methylpropyl)-4-methylbenzenesulfonamide] | > 10 µM
Cc1cc(-c2cc(-c3cc(S(=O)(=O)N[C@H]4CC[C@H](N)CC4)ccc3C)cnc2N)on1 [Example 19.3, 3-(6-amino-5-(3-methylisoxazol-5-yl)pyridin-3-yl)-N-(trans-4-aminocyclohexyl)-4-methylbenzenesulfon-amide acetic acid salt] | > 10 µM
Cc1cc(-c2cc(-c3cc(S(=O)(=O)N[C@@H]4CNC[C@H]4O)ccc3C)cnc2N)on1 [Example 19.4, 3-(6-amino-5-(3-methylisoxazol-5-yl)pyridin-3-yl)-N-(trans-4-hydroxypyrrolidin-3-yl)-4-methylbenzenesulfon-amide acetic acid salt] | > 10 µM
Cc1cc(-c2cc(-c3cc(S(=O)(=O)N4CCOC[C@@H]4C)ccc3C)cnc2N)on1 [Example 19.5, (S)-5-(2-methyl-5-((3-methylmorpholino)sulfon-yl)phenyl)-3-(3-methylisoxazol-5-yl)pyridin-2-amine trifluoroacetic acid salt] | > 10 µM
Cc1cc(-c2cc(-c3cc(S(=O)(=O)N4CCOC[C@H]4C)ccc3C)cnc2N)on1 [Example 19.6, (R)-5-(2-methyl-5-((3-methylmorpholino)sulfon-yl)phenyl)-3-(3-methylisoxazol-5-yl)pyridin-2-amine trifluoroacetic acid salt] | > 10 µM
Cc1cc(-c2cc(-c3cc(S(=O)(=O)NCC4(O)CC4)ccc3C)cnc2N)on1 [Example 19.10, 3-(6-amino-5-(3-methylisoxazol-5-yl)pyridin-3-yl)-N-((1-hydroxycyclopropyl)methyl)-4-methylbenzenesulfon-amide trifluoroacetic acid salt] | > 10 µM
Cc1cc(-c2cc(-c3cc(S(=O)(=O)N4CCCC(C)(O)CC4)ccc3C)cnc2N)on1 (stereo not drawn) [Example 19.21, 1-((3-(6-amino-5-(3-methylisoxazol-5-yl)pyridin-3-yl)-4-methylphenyl)sulfonyl)-4-methylazepan-4-ol trifluoroacetic acid salt] | > 10 µM
Cc1ccc(S(=O)(=O)NOCC(C)(C)O)cc1-c1cnc(N)c(-c2cnn(CC(F)(F)F)c2)c1 [Example 34, 3-(6-Amino-5-(1-(2,2,2-trifluoroethyl)-1H-pyrazol-4-yl)pyridin-3-yl)-N-(2-hydroxy-2-methylpropoxy)-4-methylbenzenesulfonamide hydrochloride] | > 10 µM
Cc1cc(-c2cc(-c3cc(S(=O)(=O)NC4CCOCC4)ccc3C)cnc2N)on1 [Example 37.8, 3-(6-Amino-5-(3-methylisoxazol-5-yl)pyridin-3-yl)-4-methyl-N-(tetrahydro-2H-pyran-4-yl)benzenesulfonamide] | > 10 µM
Cc1cc(-c2cc(-c3cc(S(=O)(=O)NCC4(O)CCCCC4)ccc3C)cnc2N)on1 [Example 37.9] | > 10 µM
Cc1cc(-c2cc(-c3cc(S(=O)(=O)NCCC4(O)CCCC4)ccc3C)cnc2N)on1 [Example 37.16, 3-(6-Amino-5-(3-methylisoxazol-5-yl)pyridin-3-yl)-N-(2-(1-hydroxycyclopentyl)ethyl)-4-methylbenzenesulfonamide] | > 10 µM
Cc1cc(-c2cc(-c3cc(S(=O)(=O)NCC4(CO)CCCC4)ccc3C)cnc2N)on1 [Example 37.23, 3-(6-Amino-5-(3-methylisoxazol-5-yl)pyridin-3-yl)-N-((1-(hydroxymethyl)cyclopentyl)methyl)-4-methylbenzenesulfonamide] | > 10 µM
Cc1cc(-c2cc(-c3cc(S(=O)(=O)N4CC[C@@H](O)C4)ccc3C)cnc2N)on1 [Example 37.24, (R)-1-((3-(6-Amino-5-(3-methylisoxazol-5-yl)pyridin-3-yl)-4-methylphenyl)sulfonyl)pyrrolidin-3-ol] | > 10 µM
CCN1CCC[C@@H]1CNS(=O)(=O)c1ccc(C)c(-c2cnc(N)c(-c3cc(C)no3)c2)c1 [Example 37.27, (R)-3-(6-Amino-5-(3-methylisoxazol-5-yl)pyridin-3-yl)-N-((1-ethylpyrrolidin-2-yl)methyl)-4-methylbenzenesulfonamide] | > 10 µM
Cc1cc(-c2cc(-c3cc(S(=O)(=O)NCCC4(O)CCCCC4)ccc3C)cnc2N)on1 [Example 37.30, 3-(6-Amino-5-(3-methylisoxazol-5-yl)pyridin-3-yl)-N-(2-(1-hydroxycyclohexyl)ethyl)-4-methylbenzenesulfonamide] | > 10 µM
CCN1CCC[C@H]1CNS(=O)(=O)c1ccc(C)c(-c2cnc(N)c(-c3cc(C)no3)c2)c1 [Example 37.33, (S)-3-(6-Amino-5-(3-methylisoxazol-5-yl)pyridin-3-yl)-N-((1-ethylpyrrolidin-2-yl)methyl)-4-methylbenzenesulfonamide] | > 10 µM
Cc1cc(-c2cc(-c3cc(S(=O)(=O)NCC4(CO)COC4)ccc3C)cnc2N)on1 [Example 50, 3-(6-Amino-5-(3-methylisoxazol-5-yl)pyridin-3-yl)-N-((3-(hydroxymethyl)oxetan-3-yl)methyl)-4-methylbenzenesulfonamide] | > 10 µM
Cc1cc(-c2cc(-c3cc(S(=O)(=O)NCC4(O)CCCC4)ccc3C)cnc2N)on1 [Example 53, 3-(6-Amino-5-(3-methylisoxazol-5-yl)pyridin-3-yl)-N-((1-hydroxycyclopentyl)methyl)-4-methylbenzenesulfonamide] | > 10 µM
Cc1cc(-c2cc(-c3cc(S(=O)(=O)NCC4(O)CCOCC4)ccc3C)cnc2N)on1 [Example 54, 3-(6-Amino-5-(3-methylisoxazol-5-yl)pyridin-3-yl)-N-((4-hydroxytetrahydro-2H-pyran-4-yl)methyl)-4-methylbenzenesulfonamide] | > 10 µM
Cc1ccc(S(=O)(=O)NCC(C)(C)O)cc1-c1cnc(N)c(-c2cnn(C)c2C)c1 [Example 61, 3-(6-Amino-5-(1,5-dimethyl-1H-pyrazol-4-yl)pyridin-3-yl)-N-(2-hydroxy-2-methylpropyl)-4-methylbenzenesulfonamide] | > 10 µM
Cc1ncc(-c2cc(-c3cc(S(=O)(=O)NCC4(CO)COC4)ccc3C)cnc2N)o1 [Example 67, 3-(6-Amino-5-(2-methyloxazol-5-yl)pyridin-3-yl)-N-((3-(hydroxymethyl)oxetan-3-yl)methyl)-4-methylbenzenesulfonamide] | 9.5 µM
Cc1ncc(-c2cc(-c3cc(S(=O)(=O)NCC4(CO)COC4)ccc3C)cnc2N)s1 [Example 68, 3-(6-Amino-5-(2-methylthiazol-5-yl)pyridin-3-yl)-N-((3-(hydroxymethyl)oxetan-3-yl)methyl)-4-methylbenzenesulfonamide] | 8.4 µM
Cc1noc(-c2cc(-c3cc(S(=O)(=O)NC[C@H]4CCOC4)ccc3C)cnc2N)n1 [Example 86, (R)-3-(6-Amino-5-(3-methyl-1,2,4-oxadiazol-5-yl)pyridin-3-yl)-4-methyl-N-((tetrahydrofuran-3-yl)methyl)benzenesulfonamide] | > 10 µM
Cc1noc(-c2cc(-c3cc(S(=O)(=O)NCC(C)(C)O)c(Cl)cc3C)cnc2N)n1 [Example 89, 5-(6-Amino-5-(3-methyl-1,2,4-oxadiazol-5-yl)pyridin-3-yl)-2-chloro-N-(2-hydroxy-2-methylpropyl)-4-methylbenzenesulfonamide] | > 10 µM
Cc1cnc(-c2cc(-c3cc(S(=O)(=O)NCC(C)(C)O)ccc3C)cnc2N)s1 [Example 90, 3-(6-Amino-5-(5-methylthiazol-2-yl)pyridin-3-yl)-N-(2-hydroxy-2-methylpropyl)-4-methylbenzenesulfonamide] | > 10 µM
Cc1ccc(S(=O)(=O)NCC(C)(C)O)cc1-c1cnc(N)c(-c2cnco2)c1 [Example 94a, 3-(6-amino-5-(oxazol-5-yl)pyridin-3-yl)-N-(2-hydroxy-2-methylpropyl)-4-methylbenzenesulfonamide] | > 10 µM
Cc1ncc(-c2cc(-c3cc(S(=O)(=O)NCC4CC(O)C4)ccc3C)cnc2N)o1 (stereo not drawn) [Example 104.1, 3-(6-amino-5-(2-methyloxazol-5-yl)pyridin-3-yl)-N-((3-hydroxycyclobutyl)methyl)-4-methylbenzenesulfon-amide] | 1.1 µM
Cc1ncc(-c2cc(-c3cc(S(=O)(=O)NCCCO)ccc3C)cnc2N)o1 [Example 104.6, 3-(6-amino-5-(2-methyloxazol-5-yl)pyridin-3-yl)-N-(3-hydroxypropyl)-4-methylbenzenesulfon-amide] | 1.9 µM
Cc1ncc(-c2cc(-c3cc(S(=O)(=O)NCC(F)F)ccc3C)cnc2N)o1 [Example 104.10, 3-(6-amino-5-(2-methyloxazol-5-yl)pyridin-3-yl)-N-(2,2-difluoroethyl)-4-methylbenzenesulfon-amide] | 1.5 µM

The molecules below were run against PI 4-kinase beta (Homo sapiens (Human), UniProt Q9UBF8). Conditions: read-out: Assay D PI4Kβ IC50.
Chain of PI 4-kinase beta (Q9UBF8 whole entry): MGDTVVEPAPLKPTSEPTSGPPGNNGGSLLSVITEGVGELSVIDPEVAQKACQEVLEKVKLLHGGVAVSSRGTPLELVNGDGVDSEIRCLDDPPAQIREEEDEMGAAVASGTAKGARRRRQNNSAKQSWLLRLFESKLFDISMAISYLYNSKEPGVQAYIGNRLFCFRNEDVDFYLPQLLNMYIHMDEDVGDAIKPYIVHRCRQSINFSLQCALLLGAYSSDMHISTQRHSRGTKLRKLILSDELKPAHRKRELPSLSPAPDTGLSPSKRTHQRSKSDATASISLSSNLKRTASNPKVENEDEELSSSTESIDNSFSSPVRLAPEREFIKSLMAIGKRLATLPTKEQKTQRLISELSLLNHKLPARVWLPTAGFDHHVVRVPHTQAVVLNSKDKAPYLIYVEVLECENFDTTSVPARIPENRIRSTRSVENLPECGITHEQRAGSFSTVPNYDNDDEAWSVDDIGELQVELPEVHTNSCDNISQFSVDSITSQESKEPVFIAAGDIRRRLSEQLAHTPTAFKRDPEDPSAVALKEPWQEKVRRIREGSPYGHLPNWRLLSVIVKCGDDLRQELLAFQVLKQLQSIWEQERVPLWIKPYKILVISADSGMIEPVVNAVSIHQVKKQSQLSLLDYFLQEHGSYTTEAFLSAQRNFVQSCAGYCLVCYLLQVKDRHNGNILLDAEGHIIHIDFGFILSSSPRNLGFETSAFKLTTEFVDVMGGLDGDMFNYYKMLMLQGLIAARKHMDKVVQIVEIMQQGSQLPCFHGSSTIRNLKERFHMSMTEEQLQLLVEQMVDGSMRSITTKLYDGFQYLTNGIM

Compound | IC50
Cc1cc(-c2cc(-c3cc(S(=O)(=O)N4CC5(CCOC5)C4)ccc3C)cnc2N)on1 [Example 19.1, 5-(5-(6-oxa-2-azaspiro[3.4]octan-2-ylsulfonyl)-2-methylphenyl)-3-(3-methylisoxazol-5-yl)pyridin-2-amine trifluoroacetic acid salt] | 4 µM
Cc1cc(-c2cc(-c3cc(S(=O)(=O)N4CCCC4(C)C)ccc3C)cnc2N)on1 [Example 19.9, 5-(5-((2,2-dimethylpyrrolidin-1-yl)sulfonyl)-2-methylphenyl)-3-(3-methylisoxazol-5-yl)pyridin-2-amine trifluoroacetic acid salt] | 1.9 µM
Cc1cc(-c2cc(-c3cc(S(=O)(=O)N4CCC[C@H]4CO)ccc3C)cnc2N)on1 [Example 19.15, (S)-(1-((3-(6-amino-5-(3-methylisoxazol-5-yl)pyridin-3-yl)-4-methylphenyl)sulfonyl)pyrrolidin-2-yl)methanol trifluoroacetic acid salt] | 0.9 µM
Cc1cc(-c2cc(-c3cc(S(=O)(=O)N4CCNC(=O)C4)ccc3C)cnc2N)on1 [Example 19.17, 4-((3-(6-amino-5-(3-methylisoxazol-5-yl)pyridin-3-yl)-4-methylphenyl)sulfonyl) piperazin-2-one trifluoroacetic acid salt] | 1.4 µM
